Measured values from patent US9315465B2, “Photostable AIE luminogens for specific mitochondrial imaging and its method of manufacturing thereof” (THE HONG KONG UNIVERSITY OF SCIENCE AND TECHNOLOGY, priority 2013, dated 2016).

Experiments:
mitochondria = assay: Effect of CCCP on mitochondria (pH, ΔΨm, morphology); assay type: cell-based
Procedure: Excitation wavelength: 405 nm; emission filter: 449-520 nm; irradiation time: 15.49 sec/scan.
(§1) To test the tolerance of TPE-TPP and MT to the change of mitochondrial ΔΨm, carbonyl cyanide m-chlorophenylhydrazone (CCCP) was used to treat the cells prior to the staining procedure. CCCP is an uncoupler that causes rapid acidification of the mitochondria and dysfunction of ATP synthase resulting in the decrease of the mitochondrial ΔΨm. Upon treatment with 20 μM CCCP, the pH of mitochondria decreased about 0.7 and ΔΨm thus decreased around 40 mV according to the Nernst equation. […] Since the targeting of MT to mitochondria is driven by the huge ΔΨm, the decrease of ΔΨm, will affect the direction and accumulation of cationic MT to mitochondria. It was expected that similar phenomena would be observed for TPE-TPP as it shares a similar working principle.
The high tolerance of TPE-TPP to the decrease of ΔΨm enables the observation of change of mitochondrial morphology induced by CCCP. […] The early stage of apoptosis involves remodeling of mitochondrial cristae and the consequent occurrence of morphological change of mitochondria, which is considered as an irreversible process associated with the collapse of ΔΨm. TPE-TPP has excellent specificity to mitochondria with outstanding photostability and tolerance to microenvironment change, representing a potential candidate of tracking agent for apoptosis studies.

[1] = test system: mitochondria of CCCP-treated HeLa cells; assay: Tolerance of mitochondrial staining to decrease of mitochondrial ΔΨm (CCCP-treated cells); assay type: cell-based; details: HeLa cells treated with 10 μM CCCP prior to staining
Excerpt: Excitation wavelength: 540-580 nm (for MT) and 330-385 nm (for TPE-TPP).
as §1, with “Upon treatment with 20 μM CCCP, the pH of mitochondria decreased about 0.7 and ΔΨm thus decreased around 40 mV according to the Nernst equation.” left out

HeLa cell = assay: UV-irradiation induced mitochondrial morphology change / apoptosis in stained cells; assay type: cell-based; details: HeLa cell stained with TPE-IQ, UV 6 s then 15 min in the dark
Excerpt: (A) 1 s; (B) 2 s; (C) 6 s; (D) 11 s.
(§2) With UV irradiation, the morphology of mitochondria changed gradually, indicating the initiation of the cell apoptosis process. […] To understand the underlying mechanism of TPE-IQ induced cell apoptosis, reactive oxygen species (ROS) detection agent H2DCFDA was utilized. […] This means that TPE-IQ could be utilized as a sensitizer for ROS generation, to induce cell apoptosis. Considering the mitochondria targeting of the probe, TPE-IQ could be used as an apoptosis inducer while enabling observation of the morphology change of the mitochondria at the same time. Besides, the probe may be utilized in phototherapy for selectively killing specific cells, while allowing for the study of how cells communicate when one cell undergoes the apoptosis process.

[2] = test system: reactive oxygen species (ROS); assay: ROS detection with H2DCFDA under UV irradiation; details: solution of TPE-IQ 10 μM and H2DCFDA 1 μM, intensity at 521 nm
Procedure: Concentration of TPE-IQ: 10 μM; concentration of H2DCFDA: 1 μM.
as §2

[3] = test system: mitochondria of the living HeLa cells; assay: Mitochondria staining and co-localization by fluorescence microscopy; assay type: cell-based
Procedure: TPE-TPP was then assessed for its ability to localize and stain mitochondria in living cells by fluorescence microscope. Cervical cancer HeLa cells were incubated with 5 μM TPE-TPP for 1 h and excess dyes were washed away by buffer solution.
Pearson's correlation coefficient (Rr; from +1 to −1), which indicates the degree of linear dependence between two variables, is used to quantify the overlapping of the staining region between TPE-TPP and MT.
In FIG. 7A, cells were incubated with TPE-TPP for 1 h.
An AIE luminogen targeting mitochondria specifically with red fluorescence emission was also synthesized, i.e., TPE-MitoR, (E)-1-ethyl-3,3-dimethyl-2-(2-(4′(1,2,2-triphenylvinyl)-[1,1′-biphenyl]-4-yl)vinyl)-3H-indol-1-ium hexafluorophosphate. […] TPE-MitoR's ability for tracking mitochondria is evaluated by colocalizing with TPE-TPP (FIG. 14).
In addition, cell fixation is important for sample preserving.

[4] = Excerpt: The TPE core was synthesized simply from a McMurry coupling reaction. TPP was attached through bromination and subsequent reaction with triphenylphosphine.
HeLa cells = assay: Cytotoxicity by MTT assay; assay type: cell-based; details: added to the culture medium
Procedure: Applying an organelle tracker into living sample, the cytotoxicity of the probe, TPE-TPP, was evaluated using the 3-(4,5-dimethyl-2-thiazolyl)-2,5-diphenyltetrazolium bromide (MTT) assay (FIG. 6).

[5] = Particle size analysis of nanoaggregates; assay type: physicochemical; details: aqueous solution containing 0.1% DMSO, identical condition for cell staining
Excerpt: The DMF solution of TPE-TPP was almost non-emissive while the solid state is strongly luminescent at 466 nm. […] The scheme of synthesis of said TPP-functionalized TPE is as follow: […]

N#CC(C#N)=NNc1cccc(Cl)c1 [CCCP, carbonyl cyanide m-chlorophenylhydrazone]
decrease of pH of mitochondria (mitochondria; 20 μM CCCP): about 0.7 | decrease of ΔΨm (mitochondria; 20 μM CCCP, according to the Nernst equation): around 40 mV | change of mitochondrial morphology (mitochondria; living HeLa cells exposed to CCCP (20 μM), stained with TPE-TPP): gradually transformed to small and dispersed fragments

CN1C(=CC=Cc2n(Cc3ccc(CCl)cc3)c3cc(Cl)c(Cl)cc3[n+]2Cc2ccc(CCl)cc2)C(C)(C)c2ccccc21.[Cl-] [MT]
specificity and sensitivity to mitochondria in CCCP-treated cells [1]: no more specificity to mitochondria and the sensitivity became worse

CCC[n+]1cc2ccc(C(=C(c3ccccc3)c3ccccc3)c3ccccc3)cc2c(-c2ccccc2)c1-c1ccccc1 [TPE-IQ, 3,4-diphenyl-2-propyl-6-(1,2,2-triphenylvinyl)isoquinolin-2-ium tetrafluoroborate]
mitochondrial morphology after UV irradiation (HeLa cell): changed substantially | H2DCFDA fluorescence (ROS production) with continuous UV irradiation [2]: increased gradually | mitochondria targeting in fixed cells ([3]; HeLa cells after 4% paraformaldehyde (PFA) fixation for 50 min): could still target to the mitochondria | incubation time sufficient for lighting up the mitochondria ([3]; HeLa cells, 200 nM): 10 min | emission from the mitochondria of the cells ([3]; HeLa cells, 500 nM, 1 min incubation): strong emission

CC[N+]1=C(/C=C/c2ccc(-c3ccc(C(=C(c4ccccc4)c4ccccc4)c4ccccc4)cc3)cc2)C(C)(C)c2ccccc21 [TPE-MitoR, (E)-1-ethyl-3,3-dimethyl-2-(2-(4′(1,2,2-triphenylvinyl)-[1,1′-biphenyl]-4-yl)vinyl)-3H-indol-1-ium hexafluorophosphate]
ability for tracking mitochondria (colocalization with TPE-TPP) ([3]; HeLa cells, 5 μM, 30 min): promising result in locating mitochondria

[Br-].[Br-].c1ccc(C(=C(c2ccccc2)c2ccc(C[P+](c3ccccc3)(c3ccccc3)c3ccccc3)cc2)c2ccc(C[P+](c3ccccc3)(c3ccccc3)c3ccccc3)cc2)cc1 [TPE-TPP, Bis(Triphenylphosphonium) Tetraphenylethene]
solubility in aqueous solution ([4]; aqueous solution): relatively poor solubility | solubility in polar solvents ([4]; polar solvents such as DMF and DMSO): completely soluble | concentration up to which cell viability is not significantly altered (HeLa cells): up to 7.5 μM | average particle size [5]: 144 nm | specificity and sensitivity to mitochondria in CCCP-treated cells [1]: perfectly retained | localization of staining in living cells ([3]; HeLa cells, 5 μM, 1 h): stains specifically the mitochondrial region | staining time sufficient to enter and light up mitochondria ([3]; HeLa cells, data not shown): 15 min | Pearson's correlation coefficient (Rr) of overlap with MitoTracker Red FM (MT) ([3]; co-staining in living HeLa cells, TPE-TPP 5 μM, MT 50 nM): 0.96
